# In US20160221974A1, “SODIUM CHANNEL MODULATORS FOR THE TREATMENT OF PAIN AND DIABETES” (CHROMOCELL CORPORATION, priority 2013, published 2016):
# Tests used:
# hNaV1.7 = target: T1, hNaV1.7 (Homo sapiens, UniProt Q15858); assay: FDSS Membrane Potential In-Vitro Assay; type: cell-based; settings: stimulation with veratridine and scorpion venom, read-out: NaV1.7 IC50
# T1 construct: expressed in transfected cells
# NaV1.7 = target: T2, NaV1.7 (Homo sapiens, UniProt Q15858); assay: Patchliner Electrophysiological In-Vitro Assay (NaV1.7); type: cell-based; settings: Patchliner patch clamp, HEK293, holding at V1/2
# T2 construct: expressed in transfected cells
# Description: In vitro assays were performed in recombinant cell line that stably express a heterotrimeric protein of interest from an introduced nucleic acid encoding the alpha subunit (hNav1.7, SCN9A), the beta subunit (SCNB1) and the beta subunit (SCNB2). The cell line was engineered using Human Embryonic Kidney 293 cells as host background. Additional cell lines stably expressing recombinant Nav1.7 or Nav1.5 alpha subunit alone or in combination with various beta subunits can also be used in in-vitro assays.
# The recording of sodium current from stable HEK293 cell lines expressing NaV1.7 or NaV1.5 was done on a Patchliner® instrument, Nanion Technologies. The Patchliner® is a fully automated bench-top patch clamp platform and can record simultaneously from up to eight single cells with GΩ seals.
# For patch-clamp experiments, cells were grown under standard culturing conditions in Dulbecco's Modified Eagles medium supplemented with 10% fetal bovine serum, glutamine and HEPES. Cells were harvested and kept in suspension for up to 4 hours with no significant change in quality or ability to patch. Whole cell patch clamp recordings were conducted according to Nanion's standard procedure for the Patchliner®. Experiments were conducted at room temperature.
# Voltage protocols were designed to establish: 1) peak current amplitude (Imax), 2) test potential (Vmax) and 3) half-inactivation potential (V1/2) for each of the eight individual cells. To determine V1/2, a standard steady-state inactivation protocol was executed using a series of fifteen 500 ms depolarizing pre-pulses in 10 mV increments (starting at −130 mV) and immediately followed by a 10 ms test pulse to Vmax. To estimate test compound affinity to the inactivated state of sodium channel (Ki), the holding potential for each cell was set automatically to the V1/2 calculated from a steady-state inactivation data. The current was activated with the following voltage protocol: holding at V1/2 for 2-5 seconds, return to the −120 mV for 5-10 ms to relieve fast inactivation, stepping to test potential (Vmax) for 10-20 ms. This voltage protocol was repeated every 10 seconds to establish the baseline with 2-3 buffer additions followed by the test compound addition. The dose-dependent inhibition was analyzed using Nanion's Data Analysis Package.
# CYP3A4 = target: T3, CYP3A4 (Homo sapiens, UniProt P08684); assay: In-Vitro Cytochrome P450 (CYP450) Inhibition Assay (Vivid CYP450); type: in vitro ADME; settings: CYP3A4 enzyme complex (Vivid CYP450, Invitrogen), 6 μM test concentration
# T3 construct: purchased Invitrogen
# Description: We evaluated interaction of drug candidates with cytochrome P450 enzymes which are a major determinant of drug clearance via oxidative metabolism using a high throughput compatible, fluorescence based CYP450 screening assay (Vivid® CYP450, Invitrogen) according to manufacturer's directions.
# In brief, test compounds at four different concentrations (μM—6.0, 2.0, 0.7, 0.2), a positive control (Ketoconazole) and a solvent control were incubated at room temperature in unique wells of a 96-well microtiter plate with CYP3A4 enzyme complex for 20 minutes. A pre-read fluorescence (Ex−485 nm/Em−530 nm) was measured at the start of the incubation using a Tecan Safire^2 microplate reader-monochromator to determine background fluorescence. At the end of the incubation period, enzyme substrate and co-enzyme were added and the reaction was kinetically monitored for 1 hour by measuring fluorescence every minute. Effect of test compounds on inhibition of CYP3A4 metabolism of provided substrate was determined by calculating the ratio of the effective reaction rate in presence of test compound to that in the absence of inhibitor.
# T3 sequence (P08684 2-503 limits assumed): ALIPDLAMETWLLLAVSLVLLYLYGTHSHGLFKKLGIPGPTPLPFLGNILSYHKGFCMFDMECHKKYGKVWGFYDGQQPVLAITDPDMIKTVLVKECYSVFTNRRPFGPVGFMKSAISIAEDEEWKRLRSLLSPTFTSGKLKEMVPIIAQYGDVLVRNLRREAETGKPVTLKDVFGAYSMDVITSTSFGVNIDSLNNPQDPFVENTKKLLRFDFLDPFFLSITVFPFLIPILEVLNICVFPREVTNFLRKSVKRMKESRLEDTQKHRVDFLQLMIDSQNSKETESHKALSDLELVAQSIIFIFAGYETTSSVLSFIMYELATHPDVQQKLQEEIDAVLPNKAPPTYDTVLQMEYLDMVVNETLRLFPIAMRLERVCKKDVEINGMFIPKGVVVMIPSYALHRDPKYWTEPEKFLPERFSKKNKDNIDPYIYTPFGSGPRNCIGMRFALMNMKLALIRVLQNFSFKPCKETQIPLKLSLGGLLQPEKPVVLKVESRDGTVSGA
# T1 sequence (Q15858 whole entry): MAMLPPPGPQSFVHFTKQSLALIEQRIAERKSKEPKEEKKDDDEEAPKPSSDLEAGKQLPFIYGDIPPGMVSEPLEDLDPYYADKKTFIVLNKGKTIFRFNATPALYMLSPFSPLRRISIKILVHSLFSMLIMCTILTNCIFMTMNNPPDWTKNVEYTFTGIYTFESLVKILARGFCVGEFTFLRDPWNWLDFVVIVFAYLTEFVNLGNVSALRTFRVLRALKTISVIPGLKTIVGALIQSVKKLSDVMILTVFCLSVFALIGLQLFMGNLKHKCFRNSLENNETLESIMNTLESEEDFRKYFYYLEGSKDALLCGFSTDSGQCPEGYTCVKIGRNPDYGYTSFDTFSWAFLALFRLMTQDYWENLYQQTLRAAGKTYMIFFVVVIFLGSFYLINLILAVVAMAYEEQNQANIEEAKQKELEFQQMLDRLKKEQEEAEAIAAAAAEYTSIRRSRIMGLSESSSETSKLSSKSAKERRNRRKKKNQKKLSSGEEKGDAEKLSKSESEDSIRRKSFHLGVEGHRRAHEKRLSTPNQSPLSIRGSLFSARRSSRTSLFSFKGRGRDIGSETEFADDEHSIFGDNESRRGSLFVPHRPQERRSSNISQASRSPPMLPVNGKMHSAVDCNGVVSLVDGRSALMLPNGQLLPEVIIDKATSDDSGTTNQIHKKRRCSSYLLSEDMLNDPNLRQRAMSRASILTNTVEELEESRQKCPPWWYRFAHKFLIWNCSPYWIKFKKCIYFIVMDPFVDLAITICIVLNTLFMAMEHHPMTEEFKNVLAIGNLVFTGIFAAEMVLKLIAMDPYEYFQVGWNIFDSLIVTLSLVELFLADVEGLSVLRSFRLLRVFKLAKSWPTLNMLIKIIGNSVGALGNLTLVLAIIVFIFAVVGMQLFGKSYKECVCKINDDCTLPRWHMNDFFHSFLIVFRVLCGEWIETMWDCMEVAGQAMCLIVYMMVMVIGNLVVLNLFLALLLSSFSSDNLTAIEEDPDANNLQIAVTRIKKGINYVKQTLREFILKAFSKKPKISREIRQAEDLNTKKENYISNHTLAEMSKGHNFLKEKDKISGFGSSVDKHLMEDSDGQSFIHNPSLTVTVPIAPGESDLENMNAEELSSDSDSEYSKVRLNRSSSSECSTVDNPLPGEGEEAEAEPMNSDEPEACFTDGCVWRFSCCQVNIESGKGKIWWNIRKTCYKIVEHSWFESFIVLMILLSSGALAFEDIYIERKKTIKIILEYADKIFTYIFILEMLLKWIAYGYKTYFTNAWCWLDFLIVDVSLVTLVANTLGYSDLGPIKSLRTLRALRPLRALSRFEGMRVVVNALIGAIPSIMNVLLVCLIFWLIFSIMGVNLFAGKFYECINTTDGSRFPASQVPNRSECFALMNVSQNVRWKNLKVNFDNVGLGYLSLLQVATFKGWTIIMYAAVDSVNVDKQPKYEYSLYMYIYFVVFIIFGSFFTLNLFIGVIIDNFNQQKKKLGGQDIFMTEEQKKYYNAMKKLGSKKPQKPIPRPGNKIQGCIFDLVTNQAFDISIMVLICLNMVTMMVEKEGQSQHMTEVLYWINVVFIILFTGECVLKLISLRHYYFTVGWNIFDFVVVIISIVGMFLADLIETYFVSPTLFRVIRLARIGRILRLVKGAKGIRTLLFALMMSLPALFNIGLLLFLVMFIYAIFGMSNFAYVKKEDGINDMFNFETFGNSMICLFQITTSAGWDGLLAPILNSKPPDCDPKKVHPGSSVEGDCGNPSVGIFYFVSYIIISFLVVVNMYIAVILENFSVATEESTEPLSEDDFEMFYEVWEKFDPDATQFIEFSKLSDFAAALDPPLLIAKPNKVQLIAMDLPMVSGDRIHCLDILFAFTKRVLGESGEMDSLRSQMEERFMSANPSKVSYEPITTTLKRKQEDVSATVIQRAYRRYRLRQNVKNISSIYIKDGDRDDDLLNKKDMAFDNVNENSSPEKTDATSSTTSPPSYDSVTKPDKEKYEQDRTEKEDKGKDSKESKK
# T1 sequence (Q07699 19-218 partner): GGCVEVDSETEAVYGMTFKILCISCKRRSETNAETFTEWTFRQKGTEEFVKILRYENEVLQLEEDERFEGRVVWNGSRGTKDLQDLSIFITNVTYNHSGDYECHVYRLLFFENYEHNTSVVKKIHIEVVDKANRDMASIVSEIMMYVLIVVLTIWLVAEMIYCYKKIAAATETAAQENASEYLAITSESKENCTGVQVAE
# T1 sequence (O60939 30-215 partner): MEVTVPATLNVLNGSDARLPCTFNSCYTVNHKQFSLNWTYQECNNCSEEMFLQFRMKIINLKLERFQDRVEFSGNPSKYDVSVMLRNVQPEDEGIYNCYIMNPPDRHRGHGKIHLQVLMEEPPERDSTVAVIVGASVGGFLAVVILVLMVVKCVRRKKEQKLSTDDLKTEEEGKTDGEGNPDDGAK
# T2 sequence (Q15858 whole entry): as the sequence (Q15858 whole entry) above
# T2 sequence (Q07699 19-218 partner): as the sequence (Q07699 19-218 partner) above
# T2 sequence (O60939 30-215 partner): as the sequence (O60939 30-215 partner) above
structure (smiles),measurement,setting,value
"O=C(O)CNCCCc1ccccc1Oc1cc(F)c(S(=O)(=O)Nc2ncns2)cc1Cl [Compound 20, 2-((3-(2-(4-(N-(1,2,4-thiadiazol-5-yl)sulfamoyl)-2-chloro-5-fluorophenoxy)phenyl)propyl)amino)acetic acid]",IC50,hNaV1.7,0.13 to 1 µM
same,IC50,NaV1.7,< 0.1 µM
same,"inhibition at 1 hour, 6 µM",CYP3A4,50 to 100%
"O=C(O)CNCCCc1cc(Cl)ccc1Oc1cc(F)c(S(=O)(=O)Nc2cscn2)cc1Cl [Compound 11, 2-((3-(5-chloro-2-(2-chloro-5-fluoro-4-(N-(thiazol-4-yl)sulfamoyl)phenoxy)phenyl)propyl)amino)acetic acid]",IC50,NaV1.7,< 0.1 µM
same,"inhibition at 1 hour, 6 µM",CYP3A4,0 to 25%
"O=C(O)C1CCN(CCCc2cc(Cl)ccc2Oc2cc(F)c(S(=O)(=O)Nc3cscn3)cc2Cl)CC1 [Compound 14, 1-(3-(5-chloro-2-(2-chloro-5-fluoro-4-(N-(thiazol-4-yl)sulfamoyl)phenoxy)phenyl)propyl)piperidine-4-carboxylic acid]",IC50,hNaV1.7,1 to 20 µM
same,IC50,NaV1.7,0.1 to 1 µM
same,"inhibition at 1 hour, 6 µM",CYP3A4,0 to 25%
"COC(=O)CN(C)CCCc1cc(Cl)ccc1Oc1cc(F)c(S(=O)(=O)Nc2cscn2)cc1Cl [Compound 52, methyl 2-((3-(5-chloro-2-(2-chloro-5-fluoro-4-(N-(thiazol-4-yl)sulfamoyl)phenoxy)phenyl)propyl)(methyl)amino)acetate]",IC50,hNaV1.7,1 to 20 µM
same,IC50,NaV1.7,0.1 to 0.5 µM
"O=C(O)C1CCCN(CCCc2cc(Cl)ccc2Oc2cc(F)c(S(=O)(=O)Nc3cscn3)cc2Cl)C1 (centres unmarked) [Compound 19, 1-(3-(5-chloro-2-(2-chloro-5-fluoro-4-(N-(thiazol-4-yl)sulfamoyl)phenoxy)phenyl)propyl)piperidine-3-carboxylic acid]",IC50,hNaV1.7,1 to 20 µM
same,IC50,NaV1.7,0.1 to 1 µM
same,"inhibition at 1 hour, 6 µM",CYP3A4,0 to 25%
"CCOC(=O)N(CCCc1cc(Cl)ccc1Oc1cc(F)c(S(=O)(=O)Nc2nccs2)cc1Cl)CC(=O)O [Compound 34, 2-((3-(5-chloro-2-(2-chloro-5-fluoro-4-(N-(thiazol-2-yl)sulfamoyl)phenoxy)phenyl)propyl)(ethoxycarbonyl)amino)acetic acid]",IC50,hNaV1.7,0.5 to 1 µM
same,IC50,NaV1.7,0.1 to 0.5 µM
"O=C(O)CNCCCc1cc(Cl)ccc1Oc1cc(F)c(S(=O)(=O)Nc2nccs2)cc1F [Compound 18, 2-((3-(5-chloro-2-(2,5-difluoro-4-(N-(thiazol-2-yl)sulfamoyl)phenoxy)phenyl)propyl)amino)acetic acid]",IC50,hNaV1.7,0.13 to 1 µM
same,IC50,NaV1.7,0.1 to 1 µM
same,"inhibition at 1 hour, 6 µM",CYP3A4,0 to 25%
"NC1(C(=O)O)CCN(CCCc2cc(Cl)ccc2Oc2cc(F)c(S(=O)(=O)Nc3cscn3)cc2Cl)CC1 [Compound 16, 4-amino-1-(3-(5-chloro-2-(2-chloro-5-fluoro-4-(N-(thiazol-4-yl)sulfamoyl)phenoxy)phenyl)propyl)piperidine-4-carboxylic acid]",IC50,hNaV1.7,< 0.13 µM
same,IC50,NaV1.7,< 0.1 µM
same,"inhibition at 1 hour, 6 µM",CYP3A4,25 to 50%
"C[C@H](NC(=O)c1cc(-c2cc(Cl)ccc2Oc2cc(F)c(S(=O)(=O)Nc3ncns3)cc2Cl)ccn1)C(=O)O [Compound 8, (S)-2-(4-(2-(4-(N-(1,2,4-thiadiazol-5-yl)sulfamoyl)-2-chloro-5-fluorophenoxy)-5-chlorophenyl)picolinamido)propanoic acid]",IC50,hNaV1.7,0.13 to 1 µM
same,IC50,NaV1.7,< 0.1 µM
same,"inhibition at 1 hour, 6 µM",CYP3A4,25 to 50%
"O=C(O)CC1CCN(CCCc2cc(Cl)ccc2Oc2cc(F)c(S(=O)(=O)Nc3ncns3)cc2Cl)CC1 [Compound 28, 2-(1-(3-(2-(4-(N-(1,2,4-thiadiazol-5-yl)sulfamoyl)-2-chloro-5-fluorophenoxy)-5-chlorophenyl)propyl)piperidin-4-yl)acetic acid]",IC50,hNaV1.7,0.13 to 1 µM
same,IC50,NaV1.7,< 0.1 µM
"CN(CCCc1cc(Cl)ccc1Oc1cc(F)c(S(=O)(=O)Nc2cscn2)cc1Cl)CC(=O)O [Compound 47, 2-((3-(5-chloro-2-(2-chloro-5-fluoro-4-(N-(thiazol-4-yl)sulfamoyl)phenoxy)phenyl)propyl)(methyl)amino)acetic acid]",IC50,hNaV1.7,1 to 20 µM
same,IC50,NaV1.7,1 to 10 µM
"O=C(O)CNCCCc1cc(Cl)ccc1Oc1cc(F)c(S(=O)(=O)Nc2nccs2)cc1Cl [Compound 13, 2-((3-(5-chloro-2-(2-chloro-5-fluoro-4-(N-(thiazol-2-yl)sulfamoyl)phenoxy)phenyl)propyl)amino)acetic acid]",IC50,hNaV1.7,< 0.13 µM
same,IC50,NaV1.7,< 0.1 µM
same,"inhibition at 1 hour, 6 µM",CYP3A4,0 to 25%
"O=C(O)C1CCN(CCCc2cc(Cl)ccc2Oc2cc(F)c(S(=O)(=O)Nc3ncns3)cc2Cl)CC1 [Compound 32, 1-(3-(2-(4-(N-(1,2,4-thiadiazol-5-yl)sulfamoyl)-2-chloro-5-fluorophenoxy)-5-chlorophenyl)propyl)piperidine-4-carboxylic acid]",IC50,hNaV1.7,< 0.13 µM
same,IC50,NaV1.7,< 0.1 µM
same,"inhibition at 1 hour, 6 µM",CYP3A4,50 to 100%
"N#Cc1cc(S(=O)(=O)Nc2ncns2)ccc1Oc1ccc(Cl)cc1-c1ccnc(C(=O)NCCC(=O)O)c1 [Compound 9, 3-(4-(2-(4-(N-(1,2,4-thiadiazol-5-yl)sulfamoyl)-2-cyanophenoxy)-5-chlorophenyl)picolinamido)propanoic acid]",IC50,hNaV1.7,0.13 to 1 µM
same,"inhibition at 1 hour, 6 µM",CYP3A4,0 to 25%
"N#Cc1cc(S(=O)(=O)Nc2cscn2)ccc1Oc1ccc(Cl)cc1CCCNCCC(=O)O [Compound 23, 3-((3-(5-chloro-2-(2-cyano-4-(N-(thiazol-4-yl)sulfamoyl)phenoxy)phenyl)propyl)amino)propanoic acid]",IC50,hNaV1.7,1 to 20 µM
same,IC50,NaV1.7,0.1 to 1 µM
"O=C(O)CCCNC(=O)c1cc(-c2cc(Cl)ccc2Oc2cc(F)c(S(=O)(=O)Nc3ncns3)cc2Cl)ccn1 [Compound 4, 4-(4-(2-(4-(N-(1,2,4-thiadiazol-5-yl)sulfamoyl)-2-chloro-5-fluorophenoxy)-5-chlorophenyl)picolinamido)butanoic acid]",IC50,hNaV1.7,0.13 to 1 µM
same,"inhibition at 1 hour, 6 µM",CYP3A4,50 to 100%
"NC(=O)CCNCCCc1cc(Cl)ccc1Oc1cc(F)c(S(=O)(=O)Nc2cscn2)cc1Cl [Compound 26, 3-((3-(5-chloro-2-(2-chloro-5-fluoro-4-(N-(thiazol-4-yl)sulfamoyl)phenoxy)phenyl)propyl)amino)propanamide]",IC50,hNaV1.7,< 0.13 µM
same,IC50,NaV1.7,< 0.1 µM
"O=C(O)CCNC(=O)c1cc(-c2cc(Cl)ccc2Oc2cc(F)c(S(=O)(=O)Nc3ncns3)cc2F)ccn1 [Compound 10, 3-(4-(2-(4-(N-(1,2,4-thiadiazol-5-yl)sulfamoyl)-2,5-difluorophenoxy)-5-chlorophenyl)picolinamido)propanoic acid]",IC50,hNaV1.7,0.13 to 1 µM
same,"inhibition at 1 hour, 6 µM",CYP3A4,25 to 50%
"C=CCN(CCCc1cc(Cl)ccc1Oc1cc(F)c(S(=O)(=O)Nc2nccs2)cc1Cl)CC(=O)O [Compound 62, 2-(allyl(3-(5-chloro-2-(2-chloro-5-fluoro-4-(N-(thiazol-2-yl)sulfamoyl)phenoxy)phenyl)propyl)amino)acetic acid]",IC50,NaV1.7,< 0.1 µM
"NC(=O)CNCCCc1ccccc1Oc1cc(F)c(S(=O)(=O)Nc2cscn2)cc1Cl [Compound 60, 2-((3-(2-(2-chloro-5-fluoro-4-(N-(thiazol-4-yl)sulfamoyl)phenoxy)phenyl)propyl)amino)acetamide]",IC50,NaV1.7,< 0.1 µM
"C#CCN(CCCc1cc(Cl)ccc1Oc1cc(F)c(S(=O)(=O)Nc2nccs2)cc1F)CC(=O)O [Compound 67, 2-((3-(5-chloro-2-(2,5-difluoro-4-(N-(thiazol-2-yl)sulfamoyl)phenoxy)phenyl)propyl)(prop-2-yn-1-yl)amino)acetic acid]",IC50,NaV1.7,< 0.1 µM
"C#CCN(CCCc1cc(Cl)ccc1Oc1cc(F)c(S(=O)(=O)Nc2nccs2)cc1Cl)CCC(=O)O [Compound 66, 3-((3-(5-chloro-2-(2-chloro-5-fluoro-4-(N-(thiazol-2-yl)sulfamoyl)phenoxy)phenyl)propyl)(prop-2-yn-1-yl)amino)propanoic acid]",IC50,NaV1.7,< 0.1 µM
"O=C(O)CCCCNC(=O)c1cc(-c2cc(Cl)ccc2Oc2cc(F)c(S(=O)(=O)Nc3ncns3)cc2Cl)ccn1 [Compound 3, 5-(4-(2-(4-(N-(1,2,4-thiadiazol-5-yl)sulfamoyl)-2-chloro-5-fluorophenoxy)-5-chlorophenyl)picolinamido)pentanoic acid]",IC50,hNaV1.7,< 0.13 µM
same,"inhibition at 1 hour, 6 µM",CYP3A4,50 to 100%
